This is an account of results in patent publication US11279681B2, “3-alkyl bicyclic [4,5,0] hydroxamic acids as HDAC inhibitors” (Valo Health, Inc., priority 2015, dated 2022).

The test deals with T1, HDAC6 (Homo sapiens, UniProt Q9UBN7).
T1 sequence (Q9UBN7 1-1215): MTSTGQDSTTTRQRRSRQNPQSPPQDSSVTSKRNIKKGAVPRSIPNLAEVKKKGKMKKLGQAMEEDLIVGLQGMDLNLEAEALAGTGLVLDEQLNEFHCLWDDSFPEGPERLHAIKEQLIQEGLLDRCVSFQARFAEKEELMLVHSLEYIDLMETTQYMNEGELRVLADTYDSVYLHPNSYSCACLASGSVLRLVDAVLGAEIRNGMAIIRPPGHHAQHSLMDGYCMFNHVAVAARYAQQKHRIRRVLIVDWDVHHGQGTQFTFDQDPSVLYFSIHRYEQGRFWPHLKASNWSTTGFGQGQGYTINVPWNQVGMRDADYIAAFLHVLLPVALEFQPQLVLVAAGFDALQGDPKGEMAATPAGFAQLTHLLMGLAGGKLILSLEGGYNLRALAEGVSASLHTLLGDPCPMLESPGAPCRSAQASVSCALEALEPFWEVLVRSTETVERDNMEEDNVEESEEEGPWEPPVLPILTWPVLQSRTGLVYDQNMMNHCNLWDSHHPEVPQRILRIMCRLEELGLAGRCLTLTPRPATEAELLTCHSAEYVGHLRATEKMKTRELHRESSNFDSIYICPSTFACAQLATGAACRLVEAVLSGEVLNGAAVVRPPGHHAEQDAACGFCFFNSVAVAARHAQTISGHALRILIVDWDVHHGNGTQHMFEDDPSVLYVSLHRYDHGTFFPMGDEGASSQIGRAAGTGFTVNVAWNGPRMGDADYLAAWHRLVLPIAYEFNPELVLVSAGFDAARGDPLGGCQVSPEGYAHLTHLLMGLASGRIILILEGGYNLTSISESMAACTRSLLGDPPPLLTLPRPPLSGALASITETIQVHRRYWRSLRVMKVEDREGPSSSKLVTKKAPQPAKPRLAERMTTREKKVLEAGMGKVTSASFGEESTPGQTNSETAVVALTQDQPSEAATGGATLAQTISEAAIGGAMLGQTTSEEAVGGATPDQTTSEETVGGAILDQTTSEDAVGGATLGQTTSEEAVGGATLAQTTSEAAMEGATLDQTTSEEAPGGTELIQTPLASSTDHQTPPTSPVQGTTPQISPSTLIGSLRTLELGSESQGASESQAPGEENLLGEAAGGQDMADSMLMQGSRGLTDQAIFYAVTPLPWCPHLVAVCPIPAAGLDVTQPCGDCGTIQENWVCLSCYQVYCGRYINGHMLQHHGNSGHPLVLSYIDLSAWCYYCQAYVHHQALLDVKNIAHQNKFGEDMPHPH
Briefly: In vitro histone deacetylase assay: enzymatic HDAC6 electrophoretic mobility shift assay. It counts as biochemical. The settings on record: full length human recombinant HDAC6, 1 nM enzyme, 2 μM peptide substrate RHKK(Ac)-NH2, 25° C.; read-out: Inhibitory Concentration (IC50) Values for Representative Compounds against HDAC6, Activity Range. For orientation: Mobility shift assays separate free from complexed probe on a gel.

Molecules are shown by their SMILES.

As for `C[C@H]1COc2cc(C(=O)NO)ccc2CN1` [(S)—N-hydroxy-3-methyl-2,3,4,5-tetrahydrobenzo[f][1,4]oxazepine-8-carboxamide], the IC50 fell in the range of 100 to 500 nM.

Take `CC(C)[C@H]1COc2cc(C(=O)NO)ccc2CN1C`: the IC50 was not above 100 nM.

Regarding `COc1ccc(CCN2CCOc3ccc(C(=O)NO)cc3C2)cc1`, the IC50 is more than 500 nM.

Consider `COc1ccc(CN2CC(=O)Nc3ccc(C(=O)NO)cc3C2)cc1`, for which the IC50 lay in the range of 100 to 500 nM.

On to `CN(C)CCN1CCOc2cc(C(=O)NO)ccc2C1`, for which the IC50 is more than 500 nM.

Regarding `COc1ccc(NC(=O)N2Cc3ccc(C(=O)NO)cc3OC[C@H]2C)cc1`, the IC50 is 100 to 500 nM.

Consider `O=C(NO)c1ccc2c(c1)OCCN(c1nc3ccccc3n1CC1CCCCC1)C2`, for which the IC50 lay in the range of 100 to 500 nM.

Turning to `O=C(NO)c1ccc2c(c1)OCCN(C(=O)N1Cc3ccccc3C1)C2` [N-hydroxy-4-(isoindoline-2-carbonyl)-2,3,4,5-tetrahydrobenzo[f][1,4]oxazepine-8-carboxamide], the IC50 was not above 100 nM.

Turning to `COC[C@H]1COc2cc(C(=O)NO)ccc2CN1c1ccccc1C` [(S)-N-hydroxy-3-(methoxymethyl)-4-(o-tolyl)-2,3,4,5-tetrahydrobenzo[f][1,4]oxazepine-8-carboxamide], the IC50 is not above 100 nM.

`COc1ccc(CN2CCOc3cc(C(=O)NO)ccc3[C@@H]2C)cc1` [(S)-N-hydroxy-4-(4-methoxybenzyl)-5-methyl-2,3,4,5-tetrahydrobenzo[f][1,4]oxazepine-8-carboxamide]: the IC50 lay within 100 to 500 nM.

On to `C[C@H]1COc2cc(C(=O)NO)ccc2CN1C(=O)OC1CCCCC1` [cyclohexyl(S)-8-(hydroxycarbamoyl)-3-methyl-2,3-dihydrobenzo[f][1,4]oxazepine-4(5H)-carboxylate], for which the IC50 is not above 100 nM.

As to `C[C@H]1COc2cc(C(=O)NO)ccc2CN1CCN1CCOCC1` [(S)-N-hydroxy-3-methyl-4-(2-morpholinoethyl)-2,3,4,5-tetrahydrobenzo[f][1,4]oxazepine-8-carboxamide], the IC50 is 100 to 500 nM.

As to `COc1ccc(CN2CCN(C)c3ccc(C(=O)NO)cc3C2)cc1`, the IC50 is more than 500 nM.

As for `COc1ccc(CCN2CCOc3cc(C(=O)NO)ccc3C2)cc1`, the IC50 is 100 to 500 nM.

As for `O=C1CN(Cc2cc(F)ccc2F)Cc2cc(C(=O)NO)ccc2N1`, the IC50 was in the range of 100 to 500 nM.

Turning to `O=C1CN(Cc2ccc3ccccc3c2)Cc2cc(C(=O)NO)ccc2N1`, the IC50 is not above 100 nM.

With `C[C@H]1COc2cc(C(=O)NO)ccc2CN1CCC1CCCO1` (stereo partly drawn) [(3S)-N-hydroxy-3-methyl-4-(2-(tetrahydrofuran-2-yl)ethyl)-2,3,4,5-tetrahydrobenzo[f][1,4]oxazepine-8-carboxamide], the IC50 was not above 100 nM.

In the case of `C[C@H]1COc2cc(C(=O)NO)ccc2CN1CC1CCCO1` (stereo partly drawn) [(3S)-N-hydroxy-3-methyl-4-((tetrahydrofuran-2-yl)methyl)-2,3,4,5-tetrahydrobenzo[f][1,4]oxazepine-8-carboxamide], the IC50 is not above 100 nM.

On to `CC[C@H]1COc2cc(C(=O)NO)ccc2CN1Cc1ccc(OC)cc1` [(S)-3-ethyl-N-hydroxy-4-(4-methoxybenzyl)-2,3,4,5-tetrahydrobenzo[f][1,4]oxazepine-8-carboxamide], for which the IC50 was not above 100 nM.

Consider `O=C(NO)c1ccc2c(c1)OCCN(c1nc3ccccc3o1)C2`, for which the IC50 is not above 100 nM.

`COc1ccc(CN2Cc3ccc(C(=O)NO)cc3O[C@H](C)C2)cc1`: the IC50 was 100 to 500 nM.

`CC[C@H]1COc2cc(C(=O)NO)ccc2CN1c1ccccc1C` [(S)-3-ethyl-N-hydroxy-4-(o-tolyl)-2,3,4,5-tetrahydrobenzo[f][1,4]oxazepine-8-carboxamide]: the IC50 was not above 100 nM.

For the molecule `COc1ccc(S(=O)(=O)N2CCOc3nc(C(=O)NO)ccc3C2)cc1`, the IC50 is more than 500 nM.

As to `C[C@H]1COc2cc(C(=O)NO)ccc2CN1c1ccccc1Cl` [(S)-4-(2-chlorophenyl)-N-hydroxy-3-methyl-2,3,4,5-tetrahydrobenzo[f][1,4]oxazepine-8-carboxamide], the IC50 was not above 100 nM.

Consider `CC[C@H]1COc2cc(C(=O)NO)ccc2CN1C` [(S)-3-ethyl-N-hydroxy-4-methyl-2,3,4,5-tetrahydrobenzo[f][1,4]oxazepine-8-carboxamide], for which the IC50 was not above 100 nM.

Take `COC(=O)N1Cc2ccc(C(=O)NO)cc2OC[C@@H]1C` [methyl(S)-8-(hydroxycarbamoyl)-3-methyl-2,3-dihydrobenzo[f][1,4]oxazepine-4(5H)-carboxylate]: the IC50 is not above 100 nM.

As to `O=C(NO)c1ccc2c(c1)OCCN(c1nc3ccccc3n1CC1CCOCC1)C2`, the IC50 fell in the range of 100 to 500 nM.

As to `CN1CCOc2cc(C(=O)NO)ccc2C1` [N-hydroxy-4-methyl-2,3,4,5-tetrahydrobenzo[f][1,4]oxazepine-8-carboxamide], the IC50 fell in the range of 100 to 500 nM.

Regarding `COc1ccc(S(=O)(=O)N2CCOc3ccc(C(=O)NO)cc3C2)cc1`, the IC50 fell in the range of 100 to 500 nM.

With `CC(c1ccc(F)cc1)N1Cc2ccc(C(=O)NO)cc2OC[C@@H]1C` (stereo partly drawn) [(3S)-4-(1-(4-fluorophenyl)ethyl)-N-hydroxy-3-methyl-2,3,4,5-tetrahydrobenzo[f][1,4]oxazepine-8-carboxamide], the IC50 fell in the range of 100 to 500 nM.

`C[C@H]1COc2cc(C(=O)NO)ccc2CN1C(=O)N1CCN(C)CC1` [(S)-N-hydroxy-3-methyl-4-(4-methylpiperazine-1-carbonyl)-2,3,4,5-tetrahydrobenzo[f][1,4]oxazepine-8-carboxamide]: the IC50 was 100 to 500 nM.

Take `O=C1CN(Cc2cccnc2)Cc2cc(C(=O)NO)ccc2N1`: the IC50 lay within 100 to 500 nM.

For `CC(C)OC(=O)N1Cc2ccc(C(=O)NO)cc2OC[C@@H]1C` [isopropyl(S)-8-(hydroxycarbamoyl)-3-methyl-2,3-dihydrobenzo[f][1,4]oxazepine-4(5H)-carboxylate], the IC50 was not above 100 nM.

Consider `O=C(NO)c1ccc2c(c1)OCCN(C(=O)N1CCOCC1)C2` [N-hydroxy-4-(morpholine-4-carbonyl)-2,3,4,5-tetrahydrobenzo[f][1,4]oxazepine-8-carboxamide], for which the IC50 fell in the range of 100 to 500 nM.

Regarding `C[C@H]1COc2cc(C(=O)NO)ccc2CN1C(=O)N1CCOCC1` [(S)-N-hydroxy-3-methyl-4-(morpholine-4-carbonyl)-2,3,4,5-tetrahydrobenzo[f][1,4]oxazepine-8-carboxamide], the IC50 is not above 100 nM.

Consider `C[C@H]1COc2cc(C(=O)NO)ccc2CN1C(=O)OC1CCCC1` [cyclopentyl(S)-8-(hydroxycarbamoyl)-3-methyl-2,3-dihydrobenzo[f][1,4]oxazepine-4(5H)-carboxylate], for which the IC50 was not above 100 nM.

With `C[C@H]1COc2cc(C(=O)NO)ccc2CN1C(=O)Oc1ccc(F)cc1` [4-fluorophenyl(S)-8-(hydroxycarbamoyl)-3-methyl-2,3-dihydrobenzo[f][1,4]oxazepine-4(5H)-carboxylate], the IC50 was not above 100 nM.

Regarding `CN1Cc2ccc(C(=O)NO)cc2OCC1(C)C` [N-hydroxy-3,3,4-trimethyl-2,3,4,5-tetrahydrobenzo[f][1,4]oxazepine-8-carboxamide], the IC50 was not above 100 nM.

Consider `O=C1CN(C(=O)N2CCCCC2)Cc2cc(C(=O)NO)ccc2N1` [N-hydroxy-2-oxo-4-(piperidine-1-carbonyl)-2,3,4,5-tetrahydro-1H-benzo[e][1,4]diazepine-7-carboxamide], for which the IC50 lay in the range of 100 to 500 nM.

As for `COC[C@@H]1COc2cc(C(=O)NO)ccc2CN1c1ccccc1` [(R)-N-hydroxy-3-(methoxymethyl)-4-phenyl-2,3,4,5-tetrahydrobenzo[f][1,4]oxazepine-8-carboxamide], the IC50 was in the range of 100 to 500 nM.

For the molecule `COc1ccc(CN2Cc3ccc(C(=O)NO)cc3OC[C@@H]2C(C)C)cc1`, the IC50 is not above 100 nM.

As for `C[C@H]1COc2cc(C(=O)NO)ccc2CN1C(=O)NC1CCCCC1` [(S)-N4-cyclohexyl-N8-hydroxy-3-methyl-2,3-dihydrobenzo[f][1,4]oxazepine-4,8(5H)-dicarboxamide], the IC50 was not above 100 nM.

As to `O=C(NO)c1ccc2c(c1)S(=O)(=O)N(Cc1ccccc1)CCO2`, the IC50 was in the range of 100 to 500 nM.

For `O=C1CN(CC2CC2)Cc2cc(C(=O)NO)ccc2N1`, the IC50 is 100 to 500 nM.

For `C[C@H]1COc2cc(C(=O)NO)ccc2CN1c1ccc(Cl)cc1` [(S)-4-(4-chlorophenyl)-N-hydroxy-3-methyl-2,3,4,5-tetrahydrobenzo[f][1,4]oxazepine-8-carboxamide], the IC50 was not above 100 nM.
